Test results from patent US12331037B2, “Pyrimidines as EGFR-inhibitors and methods of treating disorders” (Dana-Farber Cancer Institute, Inc., priority 2014, dated 2025).
pIC50: −log10 of the molar value. Like-named read-outs stand apart in the source and are kept apart here.

Tests used:
Ba/F3 EGFR WT = test: Ba/F3 cell proliferation (MTS) assay; type: cell-based, murine; details: Mus musculus
Method: (§1) Murine Ba/F3 cells are engineered to express mutant EGFR protein along with untransformed Ba/F3 cells and are used to performed single drug screens. Cell viability is assessed after 72 hours of compound i.e., compounds of Formula (I), exposure using the colorimetric cell proliferation MTS assay kit (Promega).
(§2) All experimental points were set up in six wells and all experiments were repeated at least three times. […] The curves were fitted using a non-linear regression model with a sigmoidal dose response.

Ba/F3 EGFR DEL = test: Ba/F3 cell proliferation (MTS) assay; type: cell-based, murine; details: Mus musculus
Method: as §1, §2

Ba/F3 EGFR DEL/L718Q = test: Ba/F3 cell proliferation (MTS) assay; type: cell-based, murine; details: Mus musculus
Method: as §1
(§3) All cell lines were maintained in RPMI 1640 (Invitrogen, Carlsbad, CA) supplemented with 10% FBS 100 units/mL penicillin, 100 units/mL streptomycin, and 2 mM glutamine.
(§4) Ba/F3, NIH-3T3, cells were infected with retrovirus and PC9GR4 and HCC827 EPR cells infected with lentivirus according to standard protocols, as described previously (Engelman, J. A., et al., Proc Natl Acad Sci USA. 2005; 102:3788-93). Stable clones were obtained by selection in puromycin (2 μg/ml).
(§5) Growth and inhibition of growth was assessed by MTS assay and was performed according to previously established methods (Zhou, W., et al., Nature. 462, 2009, 1070-4; Ercan, D., et al., Cancer Discov. 934, 2012, 934-47). […] All experimental points were set up in six wells and all experiments were repeated at least three times. […] The curves were fitted using a non-linear regression model with a sigmoidal dose response.

Ba/F3 EGFR DEL/844V = test: Ba/F3 cell proliferation (MTS) assay; type: cell-based, murine; details: Mus musculus
Method: as §1, §3, §4, §5

Ba/F3 EGFR DEL/T790M = test: Ba/F3 cell proliferation (MTS) assay; type: cell-based, murine; details: Mus musculus
Method: as §1, §2

[1] = system: Ba/F3 EGFR DEL/T790M/L718Q; test: Ba/F3 cell proliferation (MTS) assay; type: cell-based, murine; details: Mus musculus
Method: as §1, §3, §4, §5

Ba/F3 EGFR L858R = test: Ba/F3 cell proliferation (MTS) assay; type: cell-based, murine; details: Mus musculus
Method: as §1, §2

Ba/F3 EGFR L858R/L718Q = test: Ba/F3 cell proliferation (MTS) assay; type: cell-based, murine; details: Mus musculus
Method: as §1, §3, §4, §5

Ba/F3 EGFR L858R/T790M = test: Ba/F3 cell proliferation (MTS) assay; type: cell-based, murine; details: Mus musculus
Method: as §1, §2

[2] = system: Ba/F3 EGFR L858R/T790M/L718Q; test: Ba/F3 cell proliferation (MTS) assay; type: cell-based, murine; details: Mus musculus
Method: as §1, §3, §4, §5

Ba/F3 EGFR L718Q = test: cells; details: Mus musculus, 72 h
Method: as §1, §3
The EGFR L718Q and L844V mutations were introduced via site directed mutagenesis using the Quick Change Site-Directed Mutagenesis kit (Stratagene; La Jolla, CA) according to the manufacturer's instructions. The L718Q mutation was generated using forward primer 5′-[sequence]-3′ (SEQ. ID. NO. 1) and reverse primer 5′ [sequence]-3′ (SEQ. ID. NO. 2). The L844V mutation was generated using forward primer 5′-[sequence]-3′ (SEQ. ID. NO. 3) and reverse primer 5′-[sequence]-3′ (SEQ. ID. NO. 4). All constructs were confirmed by DNA sequencing. The constructs were shuttled into the retroviral vector JP1540 or lentiviral vector JP1698 using the BD Creator™ System (BD Biosciences). […]
Growth and inhibition of growth was assessed by MTS assay and was performed according to previously established methods (Zhou, W., et al., Nature. 462, 2009, 1070-4; Ercan, D., et al., Cancer Discov. 934, 2012, 934-47). […]

[3] = Ba/F3, EGFR WT, 72 hours, MTS, read-out: IC50
[4] = Ba/F3, EGFR DEL, 72 hours, MTS, read-out: IC50
[5] = Ba/F3, EGFR DEL/L718Q, 72 hours, MTS, read-out: IC50
[6] = Ba/F3, EGFR DEL/844V, 72 hours, MTS, read-out: IC50
[7] = Ba/F3, EGFR DEL/T790M, 72 hours, MTS, read-out: IC50
[8] = Ba/F3, EGFR DEL/T790M/L718Q, 72 hours, MTS, read-out: IC50
[9] = Ba/F3, EGFR L858R, 72 hours, MTS, read-out: IC50
[10] = Ba/F3, EGFR L858R/L718Q, 72 hours, MTS, read-out: IC50
[11] = Ba/F3, EGFR L858R/T790M, 72 hours, MTS, read-out: IC50
[12] = Ba/F3, EGFR L858R/T790M/L718Q, 72 hours, MTS, read-out: IC50

pIC50 (Ba/F3 EGFR WT; [3])	pIC50 (Ba/F3 EGFR DEL; [4])	pIC50 (Ba/F3 EGFR DEL/L718Q; [5])	pIC50 (Ba/F3 EGFR DEL/844V; [6])	pIC50 (Ba/F3 EGFR DEL/T790M; [7])	pIC50 [1, 8]	pIC50 (Ba/F3 EGFR L858R; [9])	pIC50 (Ba/F3 EGFR L858R/L718Q; [10])	pIC50 (Ba/F3 EGFR L858R/T790M; [11])	pIC50 [2, 12]	SMILES	pIC50 (Ba/F3 EGFR L718Q)	further results
–	–	–	–	–	–	–	–	–	–	C=CC(=O)Nc1cc(Nc2nccc(-c3cn(C)c4ccccc34)n2)c(OC)cc1N(C)CCN(C)C [AZD9291]	5.90	pIC50 (Ba/F3 EGFR WT; Ba/F3 EGFR, 72 h): 7.64; pIC50 (Ba/F3 EGFR DEL; Ba/F3 EGFR, 72 h): 8.75; pIC50 (Ba/F3 EGFR DEL/L718Q; Ba/F3 EGFR, 72 h): 7.26; pIC50 (Ba/F3 EGFR DEL/844V; Ba/F3 EGFR, 72 h): 7.82; pIC50 (Ba/F3 EGFR DEL/T790M; Ba/F3 EGFR, 72 h): 8.00; pIC50 ([1]; Ba/F3 EGFR, 72 h): 6.24; pIC50 (Ba/F3 EGFR L858R; Ba/F3 EGFR-L858R, 72 h): 8.70; pIC50 (Ba/F3 EGFR L858R/L718Q; Ba/F3 EGFR, 72 h): 5.93; pIC50 (Ba/F3 EGFR L858R/T790M; Ba/F3 EGFR, 72 h): 8.00; pIC50 ([2]; Ba/F3 EGFR, 72 h): 5.90
7.00	8.08	5.83	6.02	7.72	5.70	8.17	5.56	7.85	5.65	C=CC(=O)Nc1cccc(Oc2nc(Nc3ccc(N4CCN(C)CC4)cc3OC)ncc2Cl)c1 [WZ4002]	5.54	–
6.49	7.37	6.75	7.27	7.19	6.19	7.22	5.69	6.72	5.71	C=CC(=O)Nc1cc(Nc2nccc(-n3ccc4cccnc43)n2)c(OC)cc1N(C)CCN(C)C [Compound I-1, N-(5-((4-(1H-pyrrolo[2,3-b]pyridin-1-yl)pyrimidin-2-yl)amino)-2-((2-(dimethylamino)ethyl)(methyl)amino)-4-methoxyphenyl)acrylamide]	–	–
